The source of these data is US20060100280A1, “Cell growth regulator” (Chugai Seiyaku Kabushiki Kaisha, priority 2002, published 2006).

The test system of assay [1] is human colon cancer cell line HT29. As to the kind of experiment: Cell growth test, MTS assay, HT29. The format is cell-based. How it is done:
(§1) Accordingly, L-2-phenylglycine is considered to be a competitive inhibitor with strong specificity to ATB^0,+ (Hatanaka et al. 2002, J. Pharm. Pharmacol.). The present inventors prepared 20 mM L-2-phenylglycine solution by dissolving L-2-phenylglycine in a medium containing 0% FBS. IMDM was used as the medium for SW60 and HT29; and RPMI was used for MCF-7. This solution was diluted with the medium to prepare L-2-phenylglycine solutions of 2, 0.2, 0.02, and 0.002 mM.
(§2) Human colon cancer cell lines SW60 and HT29, and breast cancer cell line MCF-7 were prepared with medium to form 4×10^6, 1.6×10^6, and 1.6×10^6 cells/mL, respectively. 25 μL/well of the suspensions thus obtained (1×10^5, […], respectively) were plated onto a 96-well plate, which already contained 25 μL/well of medium comprising 12% FBS. 50 μL of L-2-phenylglycine solution was then added to each well. The cells were cultured in a 5% CO2 incubator, and surviving cell count was quantified by MTS assay on the fourth day of culturing.

The subject of assay [2] is human colon cancer cell line SW60. As to the kind of experiment: Cell growth test, MTS assay, SW60. The assay is classed as cell-based. As to conditions: SW60, surviving cell count by MTS on fourth day of culturing. The protocol: as §1, §2
In assay [3] the test system is breast cancer cell line MCF-7. As to the kind of experiment: Cell growth test, MTS assay, MCF-7. The format is cell-based, human. The protocol: as §1, §2
The target of assay [4] is T1, ATB^0,+ (Canis lupus familiaris, UniProt A0A8I3P2T9).
T1 construct: from tissue; host or cells: canine small intestinal brush border membrane (finding quoted from Hatanaka et al. 2002, J. Pharm. Pharmacol.)
T1 sequence (A0A8I3P2T9 1-639): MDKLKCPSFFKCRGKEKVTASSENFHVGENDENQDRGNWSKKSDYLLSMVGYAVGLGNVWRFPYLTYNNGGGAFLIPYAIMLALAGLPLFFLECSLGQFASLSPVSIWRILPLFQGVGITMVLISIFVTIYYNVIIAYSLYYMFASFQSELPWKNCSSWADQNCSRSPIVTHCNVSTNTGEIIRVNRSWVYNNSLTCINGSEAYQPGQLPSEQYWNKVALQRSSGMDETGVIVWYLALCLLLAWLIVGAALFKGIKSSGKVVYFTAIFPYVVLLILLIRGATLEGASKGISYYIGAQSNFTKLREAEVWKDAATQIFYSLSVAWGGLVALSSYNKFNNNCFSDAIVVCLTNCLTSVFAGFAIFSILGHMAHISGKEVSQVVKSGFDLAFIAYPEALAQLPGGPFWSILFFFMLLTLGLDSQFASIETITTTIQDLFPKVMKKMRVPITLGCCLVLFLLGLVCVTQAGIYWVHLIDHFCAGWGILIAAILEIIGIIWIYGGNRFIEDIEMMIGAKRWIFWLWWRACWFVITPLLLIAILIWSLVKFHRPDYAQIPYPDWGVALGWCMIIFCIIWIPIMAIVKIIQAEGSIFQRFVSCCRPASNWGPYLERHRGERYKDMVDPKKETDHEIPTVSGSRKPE
As to conditions: canine small intestinal brush border membrane; Hatanaka et al. 2002, J. Pharm. Pharmacol.; cited from earlier work.

As for `N[C@H](C(=O)O)c1ccccc1` [L-2-phenylglycine], the Cell growth suppression result is “approximately 10%” in assay [1] (HT29, in the presence of 10 μM, reached equilibrium, MTS on fourth day); “concentration-dependent cell growth suppression was observed” in assay [1] (HT29, surviving cell count by MTS on fourth day of culturing); “could not be observed” in assay [2]; “approximately 10%” in assay [3] (MCF-7, in the presence of 1 mM, MTS on fourth day); “concentration-dependent cell growth suppression was observed” in assay [3] (MCF-7, surviving cell count by MTS on fourth day of culturing). The “Affinity compared with L-alanine and L-phenylalanine” value in assay [4] is reported as “stronger affinity”.
